Here are results for 11 molecules from PubChem BioAssay AID282 (DTP/NCI, 2004).

For the assay, the system named is BDF1 mice, L1210 terephthalanilide-resistant leukemia ip, survival T/C. The assay can be described thus: NCI In Vivo Anticancer Drug Screen. Data for tumor model L1210 Leukemia resistant to A Terephthalanilide; NSC 38280 (intraperitoneal) in B6D2F1 (BDF1) mice. The conditions noted are these: endpoint: mean survival time, higher = longer survival. As to the method:
The antitumor activity of compounds was measured in mice bearing transplantable tumors. Survival or tumor size were measured and the results are expressed as the measurement made in the treated group (T) divided by the measurement made in the vehicle treated control group (C). The tumor model used in this assay is L1210 Leukemia resistant to A Terephthalanilide; NSC 38280 (intraperitoneal) in B6D2F1 (BDF1) mice

Where [1] appears, read: dose: 37.5 mg/kg/injection, schedule: Q01DX Z (ip), vehicle: carboxymethylcellulose (CMC).
[2] abbreviates: dose: 10.0 mg/kg/injection, schedule: Q01DX010 (ip), vehicle: saline.
Setting [3] is: dose: 20.0 mg/kg/injection, schedule: Q01DX010 (ip), vehicle: saline.
Where [4] appears, read: dose: 40.0 mg/kg/injection, schedule: Q01DX010 (ip), vehicle: saline.
Setting [5] is: dose: 6.25 mg/kg/injection, schedule: Q01DX010 (ip), vehicle: saline.
[6] abbreviates: dose: 12.5 mg/kg/injection, schedule: Q01DX010 (ip), vehicle: saline.
Where [7] appears, read: dose: 25.0 mg/kg/injection, schedule: Q01DX010 (ip), vehicle: saline.
[8] abbreviates: dose: 62.5 mg/kg/injection, schedule: Q01DX010 (ip), vehicle: saline.
[9] abbreviates: dose: 125.0 mg/kg/injection, schedule: Q01DX010 (ip), vehicle: saline.
[10] abbreviates: dose: 25.0 mg/kg/injection, schedule: Q01DX Z (ip), vehicle: carboxymethylcellulose (CMC).

Several values for one entry are separate records, joined by “and”; a condition that tells them apart may be missing. Identical values can stand only once. Inconclusive results and toxic doses are left out.

Turning to `Clc1ncnc2nc[nH]c12`, the T/C was 94 % of control and 102 % of control (dose: 7.5 mg/kg/injection, schedule: Q01DX010 (ip), vehicle: saline); 96 % of control and 105 % of control (dose: 15.0 mg/kg/injection, schedule: Q01DX010 (ip), vehicle: saline); 120 % of control and 105 % of control (dose: 30.0 mg/kg/injection, schedule: Q01DX010 (ip), vehicle: saline); 115 % of control under setting [1]; 123 % of control and 110 % of control (dose: 60.0 mg/kg/injection, schedule: Q01DX010 (ip), vehicle: saline); 114 % of control (dose: 75.0 mg/kg/injection, schedule: Q01DX Z (ip), vehicle: carboxymethylcellulose (CMC)). The T/C (dose: 150.0 mg/kg/injection, schedule: Q01DX Z (ip), vehicle: carboxymethylcellulose (CMC)) is 150 % of control.
For the molecule `C[C@@H]1C[C@@H]([C@H](O)CC2CC(=O)NC(=O)C2)C(=O)[C@@H](C)C1`, the T/C was 101 % of control (dose: 1.25 mg/kg/injection, schedule: Q01DX Z (ip), vehicle: saline); 107 % of control (dose: 2.5 mg/kg/injection, schedule: Q01DX Z (ip), vehicle: saline); 100 % of control and 105 % of control (dose: 5.0 mg/kg/injection, schedule: Q01DX010 (ip), vehicle: saline); 106 % of control (dose: 5.0 mg/kg/injection, schedule: Q01DX Z (ip), vehicle: saline); 107 % of control (dose: 7.5 mg/kg/injection, schedule: Q01DX Z (ip), vehicle: saline); 123 % of control and 113 % of control under setting [2]. Also, the T/C under setting [3] was 113 % of control and 117 % of control; the T/C under setting [4] is 115 % of control.
Take `N#Cc1cn(C2OC(CO)C(O)C2O)c2ncnc(N)c12` (stereo not given): the T/C (dose: 31.3 micrograms/kg/injection, schedule: Q01DX010 (ip), vehicle: saline) was 95 % of control; the T/C (dose: 62.5 micrograms/kg/injection, schedule: Q01DX010 (ip), vehicle: saline) was 99 % of control; the T/C (dose: 125.0 micrograms/kg/injection, schedule: Q01DX010 (ip), vehicle: saline) is 97 % of control.
Consider `Nc1nc2n[nH]nc2c(=O)[nH]1`, for which the T/C is 106 % of control (dose: 6.25 mg/kg/injection, schedule: Q01DX Z (ip), vehicle: water); 113 % of control (dose: 12.5 mg/kg/injection, schedule: Q01DX Z (ip), vehicle: water); 95 % of control (dose: 400.0 mg/kg/injection, schedule: Q01DX Z (ip), vehicle: water).
In the case of `N=[N+]=CC(=O)OCC(N)C(=O)O` (stereo not given), the T/C was 122 % of control (dose: 1.0 mg/kg/injection, schedule: Q01DX Z (ip), vehicle: carboxymethylcellulose (CMC)); 168 % of control (dose: 3.75 mg/kg/injection, schedule: Q01DX Z (ip), vehicle: carboxymethylcellulose (CMC)); 171 % of control (dose: 5.0 mg/kg/injection, schedule: Q01DX Z (ip), vehicle: carboxymethylcellulose (CMC)); 156 % of control under setting [5]; 183 % of control (dose: 7.5 mg/kg/injection, schedule: Q01DX Z (ip), vehicle: carboxymethylcellulose (CMC)); 174 % of control (dose: 10.0 mg/kg/injection, schedule: Q01DX Z (ip), vehicle: carboxymethylcellulose (CMC)). The T/C runs as follows: under setting [6], 118 % of control; under setting [7], 97 % of control; (dose: 30.0 mg/kg/injection, schedule: Q01DX Z (ip), vehicle: carboxymethylcellulose (CMC)) 115 % of control.
On to `O=CCC(O)C(O)C(O)CO` (stereo not given), for which the T/C reads like this: under setting [8], 96 % of control and 104 % of control; (dose: 62.5 mg/kg/injection, schedule: Q01DX Z (ip), vehicle: saline) 112 % of control; under setting [9], 113 % of control; (dose: 125.0 mg/kg/injection, schedule: Q01DX Z (ip), vehicle: saline) 108 % of control; (dose: 250.0 mg/kg/injection, schedule: Q01DX010 (ip), vehicle: saline) 105 % of control and 113 % of control; (dose: 250.0 mg/kg/injection, schedule: Q01DX Z (ip), vehicle: saline) 108 % of control. Besides, the T/C was 116 % of control and 118 % of control (dose: 500.0 mg/kg/injection, schedule: Q01DX010 (ip), vehicle: saline); 116 % of control (dose: 500.0 mg/kg/injection, schedule: Q01DX Z (ip), vehicle: saline).
As for `CN(C)c1ccc(Nc2c3ccccc3nc3ccccc23)cc1`, the T/C is, setting by setting: (dose: 36.0 mg/kg/injection, schedule: Q01DX010 (ip), vehicle: saline) 108 % of control; (dose: 54.0 mg/kg/injection, schedule: Q01DX010 (ip), vehicle: saline) 102 % of control and 111 % of control; (dose: 80.0 mg/kg/injection, schedule: Q01DX010 (ip), vehicle: saline) 97 % of control and 109 % of control; (dose: 120.0 mg/kg/injection, schedule: Q01DX010 (ip), vehicle: saline) 119 % of control.
For `CCn1cnc2c(=S)nc[nH]c21`, the T/C was 104 % of control (dose: 15.6 mg/kg/injection, schedule: Q01DX010 (ip), vehicle: saline); 113 % of control under setting [10]; 106 % of control and 109 % of control (dose: 31.3 mg/kg/injection, schedule: Q01DX010 (ip), vehicle: saline); 95 % of control and 118 % of control under setting [8]; 155 % of control (dose: 100.0 mg/kg/injection, schedule: Q01DX Z (ip), vehicle: carboxymethylcellulose (CMC)); 123 % of control and 106 % of control under setting [9].
On to `Nc1ncnc2c1ccn2C1OC(CO)C(O)C1O` (stereo not given), for which the T/C (dose: 0.23 mg/kg/injection, schedule: Q01DX Z (ip), vehicle: saline) is 98 % of control; the T/C (dose: 0.47 mg/kg/injection, schedule: Q01DX Z (ip), vehicle: saline) was 113 % of control; the T/C (dose: 0.93 mg/kg/injection, schedule: Q01DX Z (ip), vehicle: saline) is 109 % of control; the T/C (dose: 1.87 mg/kg/injection, schedule: Q01DX Z (ip), vehicle: saline) is 116 % of control; the T/C (dose: 2.5 mg/kg/injection, schedule: Q01DX Z (ip), vehicle: carboxymethylcellulose (CMC)) is 103 % of control.
`O=C1C(NC(=O)C2CCCCC2)=C(N2CC2)C(=O)C(NC(=O)C2CCCCC2)=C1N1CC1`: the T/C is, setting by setting: under setting [5], 98 % of control; under setting [6], 98 % of control; (dose: 18.0 mg/kg/injection, schedule: Q01DX Z (ip), vehicle: carboxymethylcellulose (CMC)) 108 % of control; under setting [7], 93 % of control and 98 % of control; under setting [10], 97 % of control; under setting [1], 91 % of control. The T/C was 90 % of control and 102 % of control (dose: 50.0 mg/kg/injection, schedule: Q01DX010 (ip), vehicle: saline); 100 % of control (dose: 50.0 mg/kg/injection, schedule: Q01DX Z (ip), vehicle: carboxymethylcellulose (CMC)); 121 % of control (dose: 125.0 mg/kg/injection, schedule: Q01DX Z (ip), vehicle: carboxymethylcellulose (CMC)); 122 % of control (dose: 250.0 mg/kg/injection, schedule: Q01DX Z (ip), vehicle: carboxymethylcellulose (CMC)).
Turning to `CC1CCOS(=O)O1` (stereo not given), the T/C by setting is: under setting [2], 95 % of control; under setting [3], 86 % of control; (dose: 37.5 mg/kg/injection, schedule: Q01DX Z (ip), vehicle: saline) 112 % of control; under setting [4], 87 % of control; (dose: 75.0 mg/kg/injection, schedule: Q01DX Z (ip), vehicle: saline) 120 % of control; (dose: 100.0 mg/kg/injection, schedule: Q01DX Z (ip), vehicle: saline) 103 % of control. Moreover, the T/C (dose: 150.0 mg/kg/injection, schedule: Q01DX Z (ip), vehicle: saline) is 87 % of control.
